# Measured values as given in PubChem BioAssay AID2060904 (Molecular Pharmacology Branch, DTP, NCI, 2025).
# Tested on: 349418-098-R-PDC complex spheroid viability
# Assay: Anticancer human tumor 349418-098-R-PDC patient-derived lung adenocarcinoma cell line growth inhibition [RAS]
# Conditions: for viability, T/C: stronger effect = lower value
# Outline: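 Agents were tested in combination matrices in half-log decrements from a top concentration at or near clinical Cmax (10 microM if undetermined). Targets were multi-cell spheroids of tumour lines plus HUVEC and MSC stromal cells.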
# [1] = curve of first compound, second compound 0.0316 µM
# [2] = curve of first compound, second compound 0.1 µM
# [3] = curve of first compound, second compound 0.316 µM
# [4] = curve of first compound, second compound 1 µM
# [5] = second compound 0.0316 µM, first compound 0.0316 µM
# [6] = second compound 0.0316 µM, first compound 0.1 µM
# [7] = second compound 0.0316 µM, first compound 0.316 µM
# [8] = second compound 0.0316 µM, first compound 1 µM
# [9] = second compound 0.1 µM, first compound 0.0316 µM
# [10] = second compound 0.1 µM, first compound 0.1 µM
# [11] = second compound 0.1 µM, first compound 0.316 µM
# [12] = second compound 0.1 µM, first compound 1 µM
# [13] = second compound 0.316 µM, first compound 0.0316 µM
# [14] = second compound 0.316 µM, first compound 0.1 µM
# [15] = second compound 0.316 µM, first compound 0.316 µM
# [16] = second compound 0.316 µM, first compound 1 µM
# [17] = second compound 1 µM, first compound 0.0316 µM
# [18] = second compound 1 µM, first compound 0.1 µM
# [19] = second compound 1 µM, first compound 0.316 µM
# [20] = second compound 1 µM, first compound 1 µM
# 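Further: spheroids exposed to compound for seven days before viability readout.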
smiles,measurement,setting,value
CC1(O)CCCC1n1c(=O)c(C(F)F)cc2cnc(NC3CCN(S(C)(=O)=O)CC3)nc21 (stereo not given) + CCn1c(-c2cccnc2C(C)OC)c2c3cc(ccc31)N1CCOC(CC(NC(=O)C(C(C)C)N(C)C(=O)C3(F)CCN(C(=O)C#CC(C)(C)N(C)C)CC3)C(=O)N3CCCC(N3)C(=O)OCC(C)(C)C2)C1,IC50,"curve of first compound, second compound 0.000949 µM",0.0541 µM
same,IC50,"curve of first compound, second compound 0.003 µM",0.0549 µM
same,IC50,"curve of first compound, second compound 0.00949 µM",0.0763 µM
same,IC50,"curve of first compound, second compound 0.03 µM",0.071 µM
same,IC50,"curve of first compound, second compound 0.0949 µM",0.0642 µM
same,IC50,"curve of first compound, second compound 0.3 µM",0.0316 µM
same,"viability, T/C","second compound 0.000949 µM, first compound 0.0316 µM",60.9%
same,"viability, T/C","second compound 0.000949 µM, first compound 0.1 µM",35.5%
same,"viability, T/C","second compound 0.000949 µM, first compound 0.316 µM",27.6%
same,"viability, T/C","second compound 0.000949 µM, first compound 1 µM",21.5%
same,"viability, T/C","second compound 0.000949 µM, first compound 3.16 µM",18.8%
same,"viability, T/C","second compound 0.000949 µM, first compound 10 µM",2.67%
same,"viability, T/C","second compound 0.003 µM, first compound 0.0316 µM",60.3%
same,"viability, T/C","second compound 0.003 µM, first compound 0.1 µM",38.4%
same,"viability, T/C","second compound 0.003 µM, first compound 0.316 µM",24.2%
same,"viability, T/C","second compound 0.003 µM, first compound 1 µM",20.4%
same,"viability, T/C","second compound 0.003 µM, first compound 3.16 µM",17.7%
same,"viability, T/C","second compound 0.003 µM, first compound 10 µM",2.71%
same,"viability, T/C","second compound 0.00949 µM, first compound 0.0316 µM",67.8%
same,"viability, T/C","second compound 0.00949 µM, first compound 0.1 µM",45.8%
same,"viability, T/C","second compound 0.00949 µM, first compound 0.316 µM",23.9%
same,"viability, T/C","second compound 0.00949 µM, first compound 1 µM",20.4%
same,"viability, T/C","second compound 0.00949 µM, first compound 3.16 µM",15.9%
same,"viability, T/C","second compound 0.00949 µM, first compound 10 µM",3.42%
same,"viability, T/C","second compound 0.03 µM, first compound 0.0316 µM",70.3%
same,"viability, T/C","second compound 0.03 µM, first compound 0.1 µM",39.7%
same,"viability, T/C","second compound 0.03 µM, first compound 0.316 µM",24.8%
same,"viability, T/C","second compound 0.03 µM, first compound 1 µM",19.2%
same,"viability, T/C","second compound 0.03 µM, first compound 3.16 µM",20%
same,"viability, T/C","second compound 0.03 µM, first compound 10 µM",2.63%
same,"viability, T/C","second compound 0.0949 µM, first compound 0.0316 µM",74%
same,"viability, T/C","second compound 0.0949 µM, first compound 0.1 µM",31.6%
same,"viability, T/C","second compound 0.0949 µM, first compound 0.316 µM",22.3%
same,"viability, T/C","second compound 0.0949 µM, first compound 1 µM",19.5%
same,"viability, T/C","second compound 0.0949 µM, first compound 3.16 µM",16.4%
same,"viability, T/C","second compound 0.0949 µM, first compound 10 µM",2.35%
same,"viability, T/C","second compound 0.3 µM, first compound 0.0316 µM",52.5%
same,"viability, T/C","second compound 0.3 µM, first compound 0.1 µM",31.6%
same,"viability, T/C","second compound 0.3 µM, first compound 0.316 µM",22.4%
same,"viability, T/C","second compound 0.3 µM, first compound 1 µM",19%
same,"viability, T/C","second compound 0.3 µM, first compound 3.16 µM",18.4%
same,"viability, T/C","second compound 0.3 µM, first compound 10 µM",2.97%
Cc1nc(N2CCC3(CC2)COC(C)C3N)c(CO)nc1Sc1ccnc(N)c1Cl (stereo not given) + C#Cc1c(F)ccc2cc(O)cc(-c3ncc4c(N5CC6CCC(C5)N6)nc(OCC56CCCN5CC(F)C6)nc4c3F)c12,IC50,[1],> 10 µM
same,IC50,[2],> 10 µM
same,IC50,[3],> 10 µM
same,IC50,[4],> 10 µM
same,IC50,"curve of first compound, second compound 3.16 µM",> 10 µM
same,IC50,"curve of first compound, second compound 10 µM",> 10 µM
same,"viability, T/C",[5],102%
same,"viability, T/C",[6],108%
same,"viability, T/C",[7],105%
same,"viability, T/C",[8],63.1%
same,"viability, T/C","second compound 0.0316 µM, first compound 3.16 µM",86%
same,"viability, T/C","second compound 0.0316 µM, first compound 10 µM",71.2%
same,"viability, T/C",[9],112%
same,"viability, T/C",[10],90.8%
same,"viability, T/C",[11],98.2%
same,"viability, T/C",[12],88.8%
same,"viability, T/C","second compound 0.1 µM, first compound 3.16 µM",108%
same,"viability, T/C","second compound 0.1 µM, first compound 10 µM",86%
same,"viability, T/C",[13],94.3%
same,"viability, T/C",[14],88%
same,"viability, T/C",[15],101%
same,"viability, T/C",[16],104%
same,"viability, T/C","second compound 0.316 µM, first compound 3.16 µM",104%
same,"viability, T/C","second compound 0.316 µM, first compound 10 µM",67.3%
same,"viability, T/C",[17],89.4%
same,"viability, T/C",[18],94.6%
same,"viability, T/C",[19],87%
same,"viability, T/C",[20],83.2%
same,"viability, T/C","second compound 1 µM, first compound 3.16 µM",111%
same,"viability, T/C","second compound 1 µM, first compound 10 µM",71.9%
same,"viability, T/C","second compound 3.16 µM, first compound 0.0316 µM",59.6%
same,"viability, T/C","second compound 3.16 µM, first compound 0.1 µM",108%
same,"viability, T/C","second compound 3.16 µM, first compound 0.316 µM",101%
same,"viability, T/C","second compound 3.16 µM, first compound 1 µM",62.2%
same,"viability, T/C","second compound 3.16 µM, first compound 3.16 µM",114%
same,"viability, T/C","second compound 3.16 µM, first compound 10 µM",80.3%
same,"viability, T/C","second compound 10 µM, first compound 0.0316 µM",75.4%
same,"viability, T/C","second compound 10 µM, first compound 0.1 µM",43.9%
same,"viability, T/C","second compound 10 µM, first compound 0.316 µM",70.3%
same,"viability, T/C","second compound 10 µM, first compound 1 µM",74.1%
same,"viability, T/C","second compound 10 µM, first compound 3.16 µM",73%
same,"viability, T/C","second compound 10 µM, first compound 10 µM",77%
NC1c2ccccc2OC12CCN(c1cnc3c(N4CCCc5ncccc54)n[nH]c3n1)CC2 (stereo not given),"viability, T/C",compound 0.0316 µM,102% [middle of 4 runs]
same,"viability, T/C",compound 3.16 µM,98.5% [middle of 4 runs]
same,"viability, T/C",compound 10 µM,68.6% [middle of 4 runs]
same,IC50,curve of compound,> 10 µM
O=C(c1ccc(F)c(F)c1Nc1ccc(I)cc1F)N1CC(O)([C@@H]2CCCCN2)C1 + C=CC(=O)N1CCN(c2nc(OCC3CCCN3C)nc3c(F)c(-c4nc(N)cc(C)c4C(F)(F)F)c(Cl)cc23)C(C)C1,IC50,"curve of first compound, second compound 0.00316 µM",< 0.00316 µM
same,IC50,"curve of first compound, second compound 0.01 µM",< 0.00316 µM
same,IC50,[1],< 0.00316 µM
same,IC50,[2],< 0.00316 µM
same,IC50,[3],< 0.00316 µM
same,IC50,[4],< 0.00316 µM
same,"viability, T/C","second compound 0.00316 µM, first compound 0.00316 µM",39.9%
same,"viability, T/C","second compound 0.00316 µM, first compound 0.01 µM",32.3%
same,"viability, T/C","second compound 0.00316 µM, first compound 0.0316 µM",28.5%
same,"viability, T/C","second compound 0.00316 µM, first compound 0.1 µM",12.9%
same,"viability, T/C","second compound 0.00316 µM, first compound 0.316 µM",5.88%
same,"viability, T/C","second compound 0.00316 µM, first compound 1 µM",4.12%
same,"viability, T/C","second compound 0.01 µM, first compound 0.00316 µM",37.7%
same,"viability, T/C","second compound 0.01 µM, first compound 0.01 µM",28.2%
same,"viability, T/C","second compound 0.01 µM, first compound 0.0316 µM",24.3%
same,"viability, T/C","second compound 0.01 µM, first compound 0.1 µM",13.2%
same,"viability, T/C","second compound 0.01 µM, first compound 0.316 µM",7.23%
same,"viability, T/C","second compound 0.01 µM, first compound 1 µM",4.54%
same,"viability, T/C","second compound 0.0316 µM, first compound 0.00316 µM",39%
same,"viability, T/C","second compound 0.0316 µM, first compound 0.01 µM",32.8%
same,"viability, T/C",[5],28.5%
same,"viability, T/C",[6],15.1%
same,"viability, T/C",[7],6.99%
same,"viability, T/C",[8],4.79%
same,"viability, T/C","second compound 0.1 µM, first compound 0.00316 µM",36.4%
same,"viability, T/C","second compound 0.1 µM, first compound 0.01 µM",33.6%
same,"viability, T/C",[9],26.6%
same,"viability, T/C",[10],13.5%
same,"viability, T/C",[11],6.66%
same,"viability, T/C",[12],4.97%
same,"viability, T/C","second compound 0.316 µM, first compound 0.00316 µM",29.1%
same,"viability, T/C","second compound 0.316 µM, first compound 0.01 µM",32.5%
same,"viability, T/C",[13],32.4%
same,"viability, T/C",[14],12%
same,"viability, T/C",[15],7.61%
same,"viability, T/C",[16],5.27%
same,"viability, T/C","second compound 1 µM, first compound 0.00316 µM",42.3%
same,"viability, T/C","second compound 1 µM, first compound 0.01 µM",38.8%
same,"viability, T/C",[17],26.8%
same,"viability, T/C",[18],16.4%
same,"viability, T/C",[19],7.89%
same,"viability, T/C",[20],5%
